Data as given in patent US11638745B2, “Method to improve neurologic outcomes in temperature managed patients” (University of Pittsburgh—Of the Commonwealth System of …, priority 2015, dated 2023).
Entries after “also recorded” stand apart in the source; their conditions may differ.

B1: FGF21: Fibroblast growth factor 21 protein, purchased from R&D Systems (protein, UniProt Q9NSA1 29-209, looked up)
Fibroblast growth factor 21: HPIPDSSPLLQFGGQVRQRYLYTDDAQQTEAHLEIREDGTVGGAADQSPESLLQLKALKPGVIQILGVKTSRFLCQRPDGALYGSLHFDPEACSFRELLLEDGYNVYQSEAHGLPLHLPGNKSPHRDPAPRGPARFLPLPGLPPALPEPPGILAPQPPDVGSSDPLSMVGPSQGRSPSYAS

Experiments:
[1] = test system: RBM3; assay: RBM3 protein levels by Western blot in drug-treated primary cortical neurons at 37° C. or 36° C.; format: cell-based, rat; details: for RBM3 levels: 24 h treatment; for RBM3 protein expression: DIV7 neurons cultured at 37° C., 24 h treatment with increasing dose
Description: Primary Cortical Neuron Culture. Embryos (mixed gender) were isolated from timed pregnant (E16-17) Sprague Dawley rats. Neuron cultures were performed as previously described (Jackson TC, et al. (2013) Pharmacological inhibition of pleckstrin homology domain leucine-rich repeat protein phosphatase is neuroprotective: differential effects on astrocytes. J Pharmacol Exp Ther 347:516-528). Cortices were dissected in ice-cold Hanks balanced salt solution (HBSS; Life Technologies, Grand Island, N.Y., USA) containing sodium bicarbonate (SIGMA), penicillin-streptomycin (Life Technologies), and 4-(2-hydroxyethyl)-1-piperazineethanesulfonic acid (HEPES; Life Technologies). Brain tissues were dissected under a Leica M651 light microscope (Buffalo Grove, Ill., USA), and placed in a 1.5 mL tube containing ˜1 mL prepared HBSS. Tissues were minced and transferred to a 15 mL conical tube. Cells were spun 5 min/200 g/4° C. Supernatant was aspirated, cells resuspended in 2 mL trypsin solution, and incubated 8 min at 37° C. with gentle mixing. Trypsin activity was quenched in 10 mL Neurobasal/B27 (Life Technologies) containing 10% fetal bovine serum (FBS; Thermo Fisher Scientific, Pittsburgh, Pa., USA). Cells were transferred into a new 15 mL conical tube and spun 5 min/200 g/4° C. Supernatant was replaced with 1.5 mL trituration media. Cells were dissociated by 10 passages through a fire-polished glass Pasteur pipette. The cell pellet was resuspended in plating media warmed to 37° C. (Neurobasal Media/B27 supplement prepared+25 μM L-Glutamic Acid+Pen-Strep). Cell number was quantified by automatic counting on a Cellometer (Nexcelom Bioscience, Lawrence, Mass., USA). Cells were seeded onto 6-well culture plates coated with poly-D-lysine (density ˜1.2-1.5×10^6/well). Cultures were maintained by half media replacement every ˜3-4 days in vitro (DIV). The mitotic inhibitor cytosine β-D-arabinofuranoside hydrochloride (ARA-C; 4 μM final concentration) was added in study 1 experiment (e.g. DIV10-11 cultures) to ensure purity of neuronal biochemistry for initial assessment of temperature treatments. Mitotic inhibitors at low levels are non-toxic but still potentially represent a mild stressor (though necessary to guarantee neuron purity) (Ahlemeyer B, et al., (2003) Cytosine arabinofuranoside-induced activation of astrocytes increases the susceptibility of neurons to glutamate due to the release of soluble factors. Neurochem Int 42:567-581). Results of temperature treatments were confirmed in younger DIV6 neurons in the absence of ARA-C (neuron enriched cultures; >90% neurons). Astrocytes were allowed to proliferate in aged cultures, which were not treated with ARA-C. It was observed that astrocytes are necessary for long-term survival of neuron cultures (i.e. DIV26 mature neuron cultures).
Hypothermia Protocols: Neurons were maintained in a 37° C. (normothermic) incubator. Before start of hypothermia, two identical incubators of the same make/model with humidity of ˜95% (all in the same room) were programmed to 36° C. and 33° C. Incubators were allowed a minimum of 48 h equilibration time prior to starting hypothermic experiments. In some experiments, as an additional control, a thermometer was placed inside hypothermic incubators as a secondary gauge of temperature. Temperature as assessed by that approach was independently confirmed to never be under target temperature and fluctuate by no more than ˜0.5° C. On DIV of interest, culture plates were assigned to one of the three experimental temperatures for 24 or 48 h.
Drug Treatments: Drugs were prepared in DMSO or PBS (i.e. for FGF21). All drugs were diluted in conditioned culture media and applied for 24 h. Controls received equal amounts of DMSO/PBS without drugs. Primary neurons were harvested for biochemistry at key time points. RBM3 and CIRBP levels were measured by Western blot. Investigators were not blinded to temperature treatment groups.
Western Blot. […]

[2] = test system: RBM3; assay: as above; format: cell-based, rat; details: mature DIV26 neurons, 48 h at 36° C., drug combinations; melatonin 100 μM, T090 1 μM
[3] = test system: piglet model of perinatal ischemic brain injury; details: hypothermia 33.5° C.; cited from earlier work
[4] = test system: RBM3 mRNA; details: mouse liver, microarray; cited from earlier work
[5] = mammals; cited from earlier work
[6] = used to chemically lower core body temperature; cited from earlier work
[7] = test system: PND17 rats given CCI; assay: PND17 CCI with TH/TTM ± FGF21 (MWM behavior, cell death histology); format: in vivo, rat; details: 1 mg/kg FGF21 IV at start and end of TH/TTM
Description: TTM and TH. PND17 and 12 wk adult Sprague Dawley rats receive external cooling. Endogenous RBM3/β-Klotho levels is compared in male and female rats. The TTM group is cooled to 36° C. within ˜5 min then maintained to target temperature for 7 h: 25 min. The TH group is cooled to 33° C. over ˜1 h then to target temperature for 3 h: 15 min then rewarmed at a rate of 1° C./hr. Time spent<37° C. is equal in all groups (8 h: 30 mins). FIGS. 11A, 11B, 12A, and 12B illustrate exemplary protocols for these groups.
PND17 CCI. Rats are given CCI in Aim 271, 72. Isoflurane anesthetized ˜35 g PND17 rats are craniotomized at the left parietal cortex and injured by pneumatic impactor (velocity, 4 m/s; depth, 2.5 mm). Randomization is by (A) temperature (37° C., 36° C., 33° C.), and (B)±CCI±1 mg/kg FGF21 or PBS vehicle. Two bolus IV injections of drug will be given—at the start and end of TH/TTM. Technicians are blind to treatments.
MWM Behavior. Rats are given MWM testing 73, 74. […] Motor skill is assessed measuring swim speed proving cognitive performance is not confounded by motor deficits.
Cell Death. […] Surviving CA1/CA3 cells are counted in H & E stained brain sections 7 d post-injury by unbiased stereology. 21 d contusion volume is measured after MWM in separate rats […]

[8] = test system: AKT/ERK; assay: AKT/ERK phosphorylation by Western blot in FGF21-treated neurons; format: cell-based, rat; details: neurons at 37° C., 24 h later
Description: Primary Cortical Neuron Culture. Embryos (mixed gender) were isolated from timed pregnant (E16-17) Sprague Dawley rats. Neuron cultures were performed as previously described (Jackson TC, et al. (2013) Pharmacological inhibition of pleckstrin homology domain leucine-rich repeat protein phosphatase is neuroprotective: differential effects on astrocytes. J Pharmacol Exp Ther 347:516-528). Cortices were dissected in ice-cold Hanks balanced salt solution (HBSS; Life Technologies, Grand Island, N.Y., USA) containing sodium bicarbonate (SIGMA), penicillin-streptomycin (Life Technologies), and 4-(2-hydroxyethyl)-1-piperazineethanesulfonic acid (HEPES; Life Technologies). Brain tissues were dissected under a Leica M651 light microscope (Buffalo Grove, Ill., USA), and placed in a 1.5 mL tube containing ˜1 mL prepared HBSS. Tissues were minced and transferred to a 15 mL conical tube. Cells were spun 5 min/200 g/4° C. Supernatant was aspirated, cells resuspended in 2 mL trypsin solution, and incubated 8 min at 37° C. with gentle mixing. […] Cell number was quantified by automatic counting on a Cellometer (Nexcelom Bioscience, Lawrence, Mass., USA). […]
Drug Treatments: Drugs were prepared in DMSO or PBS (i.e. for FGF21). […] RBM3 and CIRBP levels were measured by Western blot. […]
Western Blot. […] Protein concentration was determined using the BCA assay (Thermo Scientific-PIERCE). […]

[9] = young DIV6 neurons at 37° C., same concentrations
[10] = young DIV6 neurons cooled to 36° C., 5 nM FGF21, 100 μM melatonin, 1 μM T090, 5 μM SRT1720, 1 μM AZD1080

Row | Molecule | RBM3 levels [1, 9] | RBM3 levels [1, 10] | RBM3 protein expression [1] | RBM3 induction [2] | body temperature [5] | further results
1 | N#Cc1ccc2[nH]c(O)c(-c3ccc(CN4CCOCC4)cn3)c2c1 [AZD1080] | Neither SRT1720 (Sirtuin antagonist) nor AZD1080 (GSK-3β antagonist) increased RBM3 levels; also recorded: did not affect RBM3 levels | Neither SRT1720 (Sirtuin antagonist) nor AZD1080 (GSK-3β antagonist) increased RBM3 levels; also recorded: did not affect RBM3 levels | – | – | – | –
2 | O=C(Nc1ccccc1-c1cn2c(CN3CCNCC3)csc2n1)c1cnc2ccccc2n1 [SRT1720] | Neither SRT1720 (Sirtuin antagonist) nor AZD1080 (GSK-3β antagonist) increased RBM3 levels; also recorded: did not affect RBM3 levels | Neither SRT1720 (Sirtuin antagonist) nor AZD1080 (GSK-3β antagonist) increased RBM3 levels; also recorded: did not affect RBM3 levels | – | – | – | –
3 | COc1ccc2[nH]cc(CCNC(C)=O)c2c1 [melatonin] | failed to do so | augmented RBM3 upregulation; also recorded: augmented RBM3 levels; also recorded: increased hypothermia-induced RBM3 | minor effects on RBM3 protein expression | failed to do so | – | RBM3 levels ([1]; young DIV6 neurons cooled to 36° C., 5 nM FGF21, 100 μM melatonin, 1 μM T090, 5 μM SRT1720, 1 μM AZD1080, listed as Melatonin): augment RBM3 induction; hypothermia induced neuroprotection [3]: augments hypothermia (33.5° C.) induced neuroprotection
4 | O=S(=O)(c1ccccc1)N(CC(F)(F)F)c1ccc(C(O)(C(F)(F)F)C(F)(F)F)cc1 [T090] | mildly increased RBM3 levels | mildly increased RBM3 levels | minor effects on RBM3 protein expression | failed to do so | – | RBM3 levels ([1]; young DIV6 neurons at 37° C., same concentrations, listed as T0901317): mildly induced RBM3; RBM3 levels ([1]; young DIV6 neurons cooled to 36° C., 5 nM FGF21, 100 μM melatonin, 1 μM T090, 5 μM SRT1720, 1 μM AZD1080, listed as T0901317): augmented RBM3 upregulation; also recorded: mildly induced RBM3; RBM3 mRNA [4]: upregulate RBM3 mRNA
5 | Nc1ncnc2c1ncn2[C@@H]1O[C@H](COP(=O)(O)O)[C@@H](O)[C@H]1O [5-AMP, adenosine monophosphate] | – | – | – | – | chemically induce hypothermia | side effects [6]: profound hypotension and hyperglycemia
6 | B1 | failed to do so | augment RBM3 induction; also recorded: induces RBM3; also recorded: augments RBM3; also recorded: augmented RBM3 upregulation; also recorded: augmented RBM3 levels; also recorded: increased hypothermia-induced RBM3 | minor effects on RBM3 protein expression | failed to do so | slight body temperature reduction | RBM3 levels above baseline ([1]; DIV7 neurons cultured at 36° C., 24 h, dose effect): increased RBM3 above baseline in a bi-phasic manner; TH/TTM induced neuroprotection after a CCI [7]: augments TH/TTM induced neuroprotection; AKT/ERK phosphorylation [8]: decreased
